Article PMC11452728, “Pharmacokinetics of pulmonary indacaterol in rat lung using molecular imprinting solid-phase extraction coupled with RP-UPLC” (Scientific Reports, 2024)

Tests used:
[1] = Pharmacokinetic study of indacaterol in rat lung tissues (MISPE, UPLC); assay type: in vivo, male Wistar rats; conditions: rat lungs
Protocol: AUC was calculated using the trapezoidal rule where, AUC 0−t was determined by summing the areas of consecutive trapezoids formed by plotting drug concentration versus time[36]. The elimination rate constant was estimated from the least-squares regression slope of the terminal lung concentrations by multiplying the negative slope by 2.303[36]. The AUC 0−inf was calculated using Eq. (9)[36]:9 [drawing 9]
where, Ct is the last lung concentration measured. The t1/2 was calculated using Eq. (10)[36]:10 [drawing 10]
The rats were divided into eight sampling time points (n = 3/sampling time point) representing different time intervals (0.0, 5.0, 15.0, 30.0, 60.0, 180.0, 360.0 and 1440.0 min) for the pharmacokinetic study. Except for the zero-time sampling point; where rats were not administered the drug and were used for bioanalytical validation; each rat in each sampling time point was administered one inhalation capsule containing 150 µg of indacaterol using a powder administration device for animals (Aptar Pharma, Le Prieure, Le Neubourg, France). The powder administration device was designed to deliver a uniform dose of dry powder inhalers into the lungs of rats.
At each time interval, three rats were subjected to euthanasia in the euthanasia chamber using carbon dioxide gas inhalation, after being unconscious, the rats were subjected to decapitation and their lungs were separated and cut into small slices to facilitate homogenization. Then, the lung tissues were homogenized for 10 min using a homogenizer placed in an ice jacket with 2.0 mL of PBS. The homogenized samples were then centrifuged, and the supernatant was separated and loaded into MISPE cartridge following the optimized MISPE steps. The drug was eluted in 1.0 mL of the eluent. Then, 10.0 µL of salbutamol stock solution was added to the eluent as an IS, and the eluent was then injected into UPLC. The same procedure was repeated at each time interval. Dead animal bodies were kept in biohazard bags in -20^ºC freezer and finally incinerated by specialized waste disposal companies.

[2] = Stability of lung samples spiked with indacaterol standard; assay type: physicochemical, rat; conditions: for Short-term stability, % deviation from fresh sample: room temperature 2 h, lung sample; for Long-term stability, % deviation from fresh sample: -80 °C 3 weeks; for Auto-sampler stability, % deviation from fresh sample: autosampler 30°C 6 h; for Freeze and thaw stability, % deviation from fresh sample: three cycles each of 24 h
Protocol: Regarding the preparation of lung tissue samples, three non-medicated male rats were sacrificed by decapitation and their whole lungs were harvested. The lungs were cut into small slices and mixed with 2.0 mL of PBS, homogenized in an ice jacket for 10.0 min. Subsequently, 1800.0 µL of the homogenate was collected and spiked with 200.0 µL of indacaterol solution with concentrations of 1.0, 3.0, 350.0, and 700.0 µg mL^− 1 separately, to achieve the concentration of the LLOQ and QCs per 1.0 mL of the lung homogenate. Samples were centrifuged at 3000 rpm for 10 min and 1.0 mL of the supernatant was passed through the MISPE cartridge according to the extraction protocol outlined in section "Preparation and optimization of MISPE". Finally, 10.0 µL of salbutamol stock standard solution was added to the eluent as IS, and the samples were injected into the UPLC for analysis.
Samples stabilities were assessed by injecting LLOQ and QCs six times and compared to freshly prepared samples using the following stability conditions:
Samples were left at room temperature for a time exceeding that required for sample preparation (2 h).
Samples were left in autosampler (30°C) for 6 h; expected time of samples storage in autosampler before injection. Then, samples were injected.
Samples were subjected to three cycles of freeze and thaw each of 24 h and the samples were kept under the same conditions as during the analysis.
Samples were stored at -80^ºC over a period exceeding that required for the whole experiment (3 weeks).
The results of all stability conditions were evaluated using Eq. (2). The deviation should not exceed ± 15.0%.2 [drawing 2]

[3] = Solubility of indacaterol in solvents (porogen and washing solvent choice); assay type: physicochemical
[4] = cited from earlier work
[5] = parameters: method as in PMID 24295085; conditions: human lung and pulmonary microsomes; cited from earlier work
[6] = parameters: method as in PMID 19819331; conditions: cited from earlier work
[7] = male, Wistar, lung, inhaled or intranasal, 150 ug, single inhaled capsule 150 µg, mean ± SD

CCc1cc2c(cc1CC)CC(NC[C@H](O)c1ccc(O)c3[nH]c(=O)ccc13)C2 [indacaterol, 5-[(1R)-2-(5,6-diethyl-indan-2-ylamino)-1-hydroxy-ethyl]−8-hydroxy-1H-quinolin-2-one]
Cmax ([1]; male, Wistar, lung, inhaled or intranasal, 150 ug, single inhaled Onbrez Breezhaler capsule 150 µg indacaterol, n = 3 per sampling time point, mean ± SD): 51 ± 2.81 µg/mL
AUC(0-inf) [1, 7]: 542 ± 5.25 µg·h/mL
Tmax [1, 7]: 4.98 ± 0.06 min
half-life ([1]; male, Wistar, lung, inhaled or intranasal, 150 ug, single inhaled capsule 150 µg, mean ± SD, read-out: t1/2 (0–24) (converted)): 48.51 ± 0.012 h
AUC(0-t) ([1]; male, Wistar, lung, inhaled or intranasal, 150 ug, zero to 24 h, single inhaled capsule 150 µg, mean ± SD): 175.9 ± 1.05 µg·h/mL
onset of lung deposition ([1]; single inhaled capsule 150 µg): 5 min
Elimination rate constant ([1]; single inhaled capsule 150 µg, mean ± SD): 0.014 ± 0.00012 h^− 1
Short-term stability, % deviation from fresh sample ([2]; LLOQ 0.10 µg mL^-1): -11.30±3.50%
Long-term stability, % deviation from fresh sample ([2]; LLOQ): -13.10±5.89%
Auto-sampler stability, % deviation from fresh sample ([2]; LLOQ): -12.05±4.20%
Freeze and thaw stability, % deviation from fresh sample ([2]; LLOQ): -13.26±4.85%
Short-term stability, % deviation from fresh sample ([2]; QCH 70.0 µg mL^-1): -2.89±1.94%
Long-term stability, % deviation from fresh sample ([2]; QCH): -3.28±1.32%
Auto-sampler stability, % deviation from fresh sample ([2]; QCH): -1.71±2.67%
Freeze and thaw stability, % deviation from fresh sample ([2]; QCH): -2.20±2.25%
Short-term stability, % deviation from fresh sample ([2]; QCL 0.30 µg mL^-1): -5.74±2.25%
Long-term stability, % deviation from fresh sample ([2]; QCL): -4.40±3.88%
Auto-sampler stability, % deviation from fresh sample ([2]; QCL): -5.98±2.58%
Freeze and thaw stability, % deviation from fresh sample ([2]; QCL): -4.80±3.26%
Short-term stability, % deviation from fresh sample ([2]; QCM 35.0 µg mL^-1): -4.14±2.61%
Long-term stability, % deviation from fresh sample ([2]; QCM): -3.90±2.22%
Auto-sampler stability, % deviation from fresh sample ([2]; QCM): -4.02±2.34%
Freeze and thaw stability, % deviation from fresh sample ([2]; QCM): -4.30±2.81%
solubility in acetonitrile and chloroform ([3]; tested as porogen): insolubility
solubility in methanol ([3]; washing solvent discussion): high
time to enter the bloodstream after inhalation ([4]; after being inhaled): ≤ 5 min
time to highest blood concentration ([4]; after entering the bloodstream, at very low doses): approximately 15 min
absolute bioavailability ([4]; inhaled): 45%
fraction of systemically available indacaterol due to pulmonary absorption (Flung) ([4]; inhaled): 74%
time to steady state ([4]; once-daily inhalation): 12 days
metabolism by UGT1A1 and CYP3A4 in the lung [5]: did not detect any apparent metabolism
lipophilicity [6]: high
binding affinity for raft micro-domains compared to other β2 agonists ([6]; plasma membrane of airway smooth muscle): two-fold higher
